By Kd is commonly meant the free concentration of one partner at which half of the binding sites on the other are occupied at equilibrium, for simple one-to-one binding. In general, fraction unbound refers to the share of the substance not bound to proteins or other matrix. The Solubility is the dissolved amount per volume that the medium holds. By LogP is commonly meant a log measure of how a compound divides between an organic and an aqueous phase.

Results on six molecules are retold here after publication PMC10296720, “A Truncated 14-Amino-Acid Myelin Protein-Zero-Targeting Peptide for Fluorescence-Guided Nerve-Preserving Surgery” (Biomolecules, 2023).

One data set concerns the target T1, P0 (Rattus norvegicus, UniProt P06907).
T1 construct: performed using P0-expressing RT4 D6P2T cells; host or cells: RT4 D6P2T myelinating Schwannoma cells
T1 sequence (P06907 30-248): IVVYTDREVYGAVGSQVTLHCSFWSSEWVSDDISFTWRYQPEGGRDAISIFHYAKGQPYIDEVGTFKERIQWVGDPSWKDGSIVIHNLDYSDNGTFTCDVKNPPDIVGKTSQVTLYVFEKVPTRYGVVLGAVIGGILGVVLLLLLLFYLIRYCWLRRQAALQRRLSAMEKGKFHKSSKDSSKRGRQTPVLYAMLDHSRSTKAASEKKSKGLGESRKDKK
Briefly: P0 affinity (KD) via flow cytometry saturation binding. As to conditions: saturation binding on P0-expressing RT4 D6P2T Schwannoma cells, flow cytometry (APC-A), 0–2000 nM, triplicate, repeated at least two times per tracer. For orientation: Flow cytometry measures light scatter and fluorescence of single cells or particles in a stream.

A further data set is described as follows: Serum binding. The class given is in vitro ADME. To be noted: as previously described (refs 27, 31, 36). The method, then: (§1) Determination of the chemical and photophysical properties (LogP, solubility, serum binding, net charge, and brightness) was performed as previously described.
A further data set can be described thus: Solubility. Type of data set: physicochemical. To be noted: as previously described (refs 27, 31, 36). How it is done:
as §1

A further data set can be described thus: LogP. The class given is physicochemical. As to conditions: as previously described (refs 27, 31, 36). The method, then: as §1
A short description of the next data set: Brightness (in HSA). Type of data set: physicochemical, human. To be noted: for Brightness (in HSA): in human serum albumin. The method, then: as §1
The test system of data set [1] is P0-expressing RT4 D6P2T myelinating Schwannoma cells. Briefly: P0 staining and co-localization via fluorescence confocal microscopy. The class given is cell-based. To be noted: 1 μM tracer, 1 h at 4 °C. How it is done: All chemicals were received from Actu-All Chemical (Oss, The Netherlands), Sigma Aldrich (St. Louis, MO, USA), Tokyo Chemical Industry (Tokyo, Japan), Biosolve BV (Valkenswaard, The Netherlands), and VWR Chemicals (Solon, OH, USA) and used without further purification. DMF and DMSO were dried over 4 Å molecular sieves for at least 24 h prior to use. Preparative high-pressure liquid chromatography (prep-HPLC) was performed on a Waters HPLC system (Waters Chromatography B.V., Etten-Leur, The Netherlands) using a 2545 quaternary gradient module pump and a 2489 UV detector. […] Absorption spectrometry was performed using a UV1280 UV–vis spectrometer (Shimadzu, Kyoto, Japan), and fluorescence spectrometry was performed using an LS55 (Perkin Elmer, Waltham, MA, USA). Fluorescence confocal imaging was performed using an SP8 WLL confocal microscope (Leica Microsystems, Wetzlar, Germany). The obtained images were analyzed using Leica Confocal Software (Leica Microsystems). The mean fluorescence intensity values per sample were measured using an LSRII flow cytometer (BD Biosciences, Franklin Lakes, NJ, USA) with APC-A settings (635 nm laser and 750 nm long-pass filter) for a Cy5 dye. […]
Semi-quenatitative assessment of the level of co-staining within the fluorescence […]

The target of data set [2] is myelin protein zero (Homo sapiens) (UniProt P25189). To be noted: cited from earlier work.
Chain of myelin protein zero (Homo sapiens) (P25189 30-153): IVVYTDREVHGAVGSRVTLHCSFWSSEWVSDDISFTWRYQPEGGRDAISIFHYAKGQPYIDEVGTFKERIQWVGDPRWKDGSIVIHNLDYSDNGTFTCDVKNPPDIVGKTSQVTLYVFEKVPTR

Values after ≈ are worked out from the molar mass of the structure shown. Read-outs that look alike come from different tables or passages of the source. Where a SMILES comes first, the peptide text is derived from it. The star is where a group is joined. X1 = CC1(C)C(/C=C/C=C/C=C2/N(CCCCS(=O)(=O)O)c3ccc(S(=O)(=O)O)cc3C2(C)C)=[N+](CCCCCC(=O)NCCN2C(=O)CC(*)C2=O)c2ccc(S(=O)(=O)[O-])cc21; X2 = CC1(C)C(=CC=CC=CC2=[N+](CCCCS(=O)(=O)[O-])c3ccc(S(=O)(=O)O)cc3C2(C)C)N(CCCCCC(=O)NCCN2C(=O)CC(*)C2=O)c2ccc(S(=O)(=O)O)cc21

On P0, `CC[C@H](C)[C@H](NC(=O)[C@H](CC(=O)O)NC(=O)[C@@H]1CCCN1C(=O)[C@@H]1CCCN1C(=O)[C@H](CC(N)=O)NC(=O)[C@H](CCCCN)NC(C)=O)C(=O)N[C@H](C(=O)NCC(=O)N[C@@H](CCCCN)C(=O)N[C@H](C(=O)N[C@@H](CSC1CC(=O)N(CCNC(=O)CCCCC[N+]2=C(/C=C/C=C/C=C3/N(CCCCS(=O)(=O)O)c4ccc(S(=O)(=O)O)cc4C3(C)C)C(C)(C)c3cc(S(=O)(=O)[O-])ccc32)C1=O)C(N)=O)[C@@H](C)O)C(C)C` (stereo partly shown) [Cy5-P0_101–110] (Ac-KNPPDIVGKTC(X1)-NH2) yielded an equilibrium dissociation constant (Kd) above 1000 nM. In “Serum binding”, this molecule showed an unbound share (fraction unbound) of 0.45. In the data set “Solubility”, this molecule registered a Solubility above 400 µM. Besides, the lipophilicity (LogP) in the data set “LogP” (read-out: LogP) was -0.73 ± 0.12.
The corresponding values for `CC[C@H](C)[C@H](NC(=O)[C@H](CC(=O)O)NC(=O)[C@@H]1CCCN1C(=O)[C@@H]1CCCN1C(=O)[C@H](CC(N)=O)NC(=O)[C@H](CCCCN)NC(C)=O)C(=O)N[C@H](C(=O)NCC(=O)N[C@@H](CCCCN)C(=O)N[C@H](C(=O)N[C@@H](CO)C(=O)N[C@@H](CCC(N)=O)C(=O)N[C@H](C(=O)N[C@H](C(=O)N[C@@H](CC(C)C)C(=O)N[C@@H](CSC1CC(=O)N(CCNC(=O)CCCCC[N+]2=C(/C=C/C=C/C=C3/N(CCCCS(=O)(=O)O)c4ccc(S(=O)(=O)O)cc4C3(C)C)C(C)(C)c3cc(S(=O)(=O)[O-])ccc32)C1=O)C(N)=O)[C@@H](C)O)C(C)C)[C@@H](C)O)C(C)C` (stereo partly shown) [Cy5-P0_101–115] (Ac-KNPPDIVGKTSQVTLC(X1)-NH2) are above 1000 nM, 0.4, above 400 µM and -0.8 ± 0.16.
For the molecule `CC[C@H](C)[C@H](NC(=O)[C@H](CC(=O)O)NC(=O)[C@@H]1CCCN1C(=O)[C@@H]1CCCN1C(=O)[C@H](CC(N)=O)NC(=O)[C@H](CCCCN)NC(C)=O)C(=O)N[C@H](C(=O)NCC(=O)N[C@@H](CCCCN)C(=O)N[C@H](C(=O)N[C@@H](CO)C(=O)N[C@@H](CCC(N)=O)C(=O)N[C@H](C(=O)N[C@H](C(=O)N[C@@H](CC(C)C)C(=O)N[C@@H](Cc1ccc(O)cc1)C(=O)N[C@H](C(=O)N[C@@H](Cc1ccccc1)C(=O)N[C@@H](CCC(=O)O)C(=O)N[C@@H](CCCCN)C(=O)N[C@@H](CSC1CC(=O)N(CCNC(=O)CCCCCN2C(=CC=CC=CC3=[N+](CCCCS(=O)(=O)[O-])c4ccc(S(=O)(=O)O)cc4C3(C)C)C(C)(C)c3cc(S(=O)(=O)O)ccc32)C1=O)C(N)=O)C(C)C)[C@@H](C)O)C(C)C)[C@@H](C)O)C(C)C` (stereo partly shown) [Cy5-P0_101–120] (Ac-KNPPDIVGKTSQVTLYVFEKC(X2)-NH2; N-terminus and C-terminus assumed), in “Serum binding”, the unbound share (fraction unbound) is 0.34. Also, the “increase in brightness versus lead Cy5-P0_101–125” value in the data set “Brightness (in HSA)” (in HSA) was “twofold increase in brightness”. Moreover, the “Brightness (in HSA)” value in the data set “Brightness (in HSA)” is 137,940. Moreover, the Solubility in the data set “Solubility” is recorded as 15 µM (≈ 49.4 µg/mL). Moreover, the LogP in the data set “LogP” (read-out: LogP) was -0.99 ± 0.1.
`CC[C@H](C)[C@H](NC(=O)[C@H](CC(=O)O)NC(C)=O)C(=O)N[C@H](C(=O)NCC(=O)N[C@@H](CCCCN)C(=O)N[C@H](C(=O)N[C@@H](CO)C(=O)N[C@@H](CCC(N)=O)C(=O)N[C@H](C(=O)N[C@H](C(=O)N[C@@H](CC(C)C)C(=O)N[C@@H](Cc1ccc(O)cc1)C(=O)N[C@H](C(=O)N[C@@H](Cc1ccccc1)C(=O)N[C@@H](CCC(=O)O)C(=O)N[C@@H](CCCCN)C(=O)N[C@H](C(=O)N1CCC[C@H]1C(=O)N[C@H](C(=O)N[C@@H](CCCNC(=N)N)C(=O)N[C@@H](Cc1ccc(O)cc1)C(=O)N[C@@H](CSC1CC(=O)N(CCNC(=O)CCCCCN2C(=CC=CC=CC3=[N+](CCCCS(=O)(=O)[O-])c4ccc(S(=O)(=O)O)cc4C3(C)C)C(C)(C)c3cc(S(=O)(=O)O)ccc32)C1=O)C(N)=O)[C@@H](C)O)C(C)C)C(C)C)[C@@H](C)O)C(C)C)[C@@H](C)O)C(C)C` (stereo partly shown) [Cy5-P0_105–125] (Ac-DIVGKTSQVTLYVFEKVPTRYC(X2)-NH2; N-terminus and C-terminus assumed): the unbound share (fraction unbound) in the data set “Serum binding” is 0.44. In addition, the “Brightness (in HSA)” value in the data set “Brightness (in HSA)” is given as 157,300. Besides, in data set [1] (N = 3 per tracer, semi-quantitative, Image J), the “Co-localization factor (scale: 0-1), Cy5 vs Lysosomes” value was “low”. Moreover, the Solubility in the data set “Solubility” turned out to be 9 µM (≈ 31.3 µg/mL). In “LogP”, this molecule gave a LogP of −0.60 ± 0.04.
Consider “Cy5-P0101-125 101-125 (from UniProt P25189)”, for which the Kd in data set [2] is 104 nM.
“KNPPDIVGKTSQVTLYVFEKVPTRY [Cy5-P0_101–125]”: in “Brightness (in HSA)”, the “Brightness (in HSA)” value was 67,760. In data set [1] (confocal microscopy, in words), the “P0-related staining (pattern and intensity)” value is reported as “in agreement with the location of P0 on the membrane”. This molecule displayed a Solubility in “Solubility” of 172 µM.
